Values quoted from earlier work in patent publication US20080038350A1, “LOW-DOSAGE PERORAL MEDICATION FOR CONTRACEPTION CONTAINING CRYSTALLINE DIENOGEST AND ETHINYL ESTRADIOL” (priority 2006, published 2008).

What was measured:
[1] = test system: ovulation inhibition; settings: micronized, average particle size of about 3 μm
[2] = single dosage

Row | SMILES | optimum dosage for reliable ovulation inhibition [1] | plasma level, average particle size 3.7 μm versus powder of 22 μm [2]
1 | C[C@]12CCC3=C4CCC(=O)C=C4CC[C@H]3[C@@H]1CC[C@@]2(O)CC#N [dienogest, 17α-cyanomethyl-17β-hydroxyestra-4,9-dien-3-one] | 2 mg | –
2 | C[C@H]1O[C@@H](O[C@H]2[C@@H](O)C[C@H](O[C@H]3[C@@H](O)C[C@H](O[C@H]4CC[C@@]5(C)[C@H](CC[C@@H]6[C@@H]5C[C@@H](O)[C@]5(C)[C@@H](C7=CC(=O)OC7)CC[C@]65O)C4)O[C@@H]3C)O[C@@H]2C)C[C@H](O)[C@@H]1O [digoxin] | – | nearly twice as high
